Assay results taken from patent US10202367B2, “Heterocyclic compounds and methods of use thereof” (priority 2014, dated 2019).
Where “and” joins values, the source holds several entries; their conditions need not be identical. Equal values may be shown once. Read-outs that look alike come from different tables or passages of the source.

Tests used:
HCVcc-RLuc = HCVcc-RLuc assay, combination of compound 3 with anti-HCV drugs (CalcuSyn / MacSynergy II); format: cell-based, Hepatitis C virus
Cell permeability = format: in vitro ADME
in vitro = details: rat, microsomes, Rat liver microsomes t ½ (min)
[1] = Aqueous solubility in PBS; format: physicochemical
HCVsc, genotype 2a = format: cell-based, Hepatitis C virus; details: 10 μM
GT 2a replicon RNA = format: cell-based, Hepatitis C virus
[2] = tested on: HCV replicon (GT 2a) cells; format: cell-based, Hepatitis C virus
HCVpp GT 1a = assay: HCVpp entry assay; format: cell-based, Hepatitis C virus; details: Huh7.5.1 cells
VSVpp = format: cell-based, vesicular stomatitis virus
[3] = Stability in PBS or PBS/acetonitrile (1/1); format: physicochemical; details: 10 μM, PBS and PBS/acetonitrile (1/1), pH 7.4, room temperature, after 48 hours
Protocol: (§1) Procedure: […] The mixtures were sampled every hour for eight hours or every 8 hours for 48 hours and analyzed by RP HPLC/UV/HRMS. The analytical RP HPLCUV/HRMS system utilized for the analysis was a Waters Acquity system with UV-detection and mass-detection (Waters SQD). […] Absolute areas under the curve were compared at each time point to determine relative percent compound remaining. The masses of potential adducts were searched for in the final samples to determine if any detectable adduct formed. All samples were prepared in duplicate and the average plotted. Ethacrynic acid, a known Michael acceptor, was used as a positive control. […] To determine the stability of the probe compound to nucleophilic degradation, the compound was dissolved in the two solvent systems above in the presence of 50 μM dithiothreitol (DTT) (FIGS. 2A and 2B).

[4] = Stability to nucleophilic degradation in presence of 50 μM dithiothreitol; format: physicochemical; details: 10 μM, 50 μM DTT, PBS and PBS/acetonitrile (1/1), after 8 hours
Protocol: as §1

C[C@@]1(O)[C@H](O)[C@@H](CO)O[C@H]1n1ccc(N)nc1=O [2′-C-methylcytidine]
CalcuSyn synergy volume (level of synergy) (HCVcc-RLuc; tested drug combined with compound 3 (SID 144187742)): +/− (nearly additive (0.9 < CI < 1.1))
CalcuSyn CI value (combination index) (HCVcc-RLuc; tested drug combined with compound 3 (SID 144187742) at or near their EC50 values, mean ± SEM, n ≥ 6): 1.10
MacSynergy synergy volume (level of synergy) (HCVcc-RLuc; tested drug combined with compound 3, Bliss independence model, MacSynergy II): +++ (strong synergy (log volume > 9))

CC1CCCN(CCCNC(=O)C2CCN(Cc3oc(-c4cc(C(F)(F)F)cc(C(F)(F)F)c4)nc3C(F)(F)F)CC2)C1 (stereo not shown) [Compound 69]
Permeability (le^−6 cm/s) (Cell permeability): >1397 le^−6 cm/s
half-life (in vitro): 5.7 min

COC(=O)N[C@H](C(=O)N1CCC[C@H]1c1nc(-c2ccc(-c3ccc(-c4c[nH]c([C@@H]5CCCN5C(=O)[C@@H](NC(=O)OC)C(C)C)n4)cc3)cc2)c[nH]1)C(C)C [Daclatasvir]
CalcuSyn CI value (combination index) (HCVcc-RLuc): 0.510
CalcuSyn synergy volume (level of synergy) (HCVcc-RLuc): +++ (key: +/−: nearly additive (0.9 < CI < 1.1); ++: moderate synergy (0.7 < CI < 0.85); +++: synergy (0.3 < CI < 0.7))

CCC[C@H](NC(=O)[C@@H]1[C@H]2CCC[C@H]2CN1C(=O)[C@@H](NC(=O)[C@@H](NC(=O)c1cnccn1)C1CCCCC1)C(C)(C)C)C(=O)C(=O)NC1CC1 [Telaprevir]
CalcuSyn CI value (combination index) (HCVcc-RLuc): 0.775
CalcuSyn synergy volume (level of synergy) (HCVcc-RLuc): ++ (key: +/−: nearly additive (0.9 < CI < 1.1); ++: moderate synergy (0.7 < CI < 0.85); +++: synergy (0.3 < CI < 0.7))
MacSynergy synergy volume (level of synergy) (HCVcc-RLuc): +++ (key: ++: moderate synergy (5 < log volume < 9); +++: strong synergy (log volume > 9))

IFN-α
CalcuSyn CI value (combination index) (HCVcc-RLuc): 0.545
CalcuSyn synergy volume (level of synergy) (HCVcc-RLuc): +++ (key: +/−: nearly additive (0.9 < CI < 1.1); ++: moderate synergy (0.7 < CI < 0.85); +++: synergy (0.3 < CI < 0.7))

C[C@@H]1C[C@H](C)CN(CCCNC(=O)C2CCN(Cc3oc(-c4cc(C(F)(F)F)cc(C(F)(F)F)c4)nc3C(F)(F)F)CC2)C1 [Compound 68]
Permeability (le^−6 cm/s) (Cell permeability): 1061 le^−6 cm/s
Sol. [1]: 2.5 µg/mL
half-life (in vitro): 16.4 min

Cc1ccccc1-c1nc(CN2CCC(C(=O)NCCCN3C[C@H](C)C[C@H](C)C3)CC2)c(C)o1 [Compound 3]
Sol. [1]: 53.9 µg/mL
inhibitory activity on HCVsc infection level (HCVsc, genotype 2a): dramatic inhibitory activities
inhibitory effect on HCV replication, transient transfection with GT 2a replicon RNA (GT 2a replicon RNA; 10 μM): no inhibitory effect
% RLU at 10 μM, HCV subgenomic replicon Transient GT 2a (GT 2a replicon RNA; Huh7.5.1 cells, 48 h): 105 % RLU
inhibitory effect on HCV replication, GT 2a replicon cell line ([2]; 10 μM): no inhibitory effect
% RLU at 10 μM, HCV subgenomic replicon GT 2a cell line ([2]; 48 h): 103 % RLU
% RLU at 10 μM, HCVpp GT 1a (HCVpp GT 1a): < 30 % RLU
% RLU at 10 μM, VSV pp (VSVpp): ~50 % RLU
antiviral effect in combination with ribavirin, interferon, telaprevir, daclatasvir, cyclosporin A and 2′-C-methylcytidine (HCVcc-RLuc; combination): synergistic

Cc1ccccc1-c1nc(CC2CCC[C@@H](C(=O)CCCCN3C[C@H](C)C[C@H](C)C3)C2)c(C)o1 (stereo partly shown) [Compound 66]
Permeability (le^−6 cm/s) (Cell permeability): 864.8 le^−6 cm/s
Sol. [1]: 57.8 µg/mL
half-life (in vitro): 3.9 min

Cc1oc(-c2c(C)c(C)c(C)c(C)c2C)nc1CN1CCC(C(=O)NCCCN2C[C@H](C)C[C@H](C)C2)CC1 [Compound 56]
Permeability (le^−6 cm/s) (Cell permeability): 455.2 le^−6 cm/s

CCN(CC)CCCCNC(=O)C1CCN(Cc2nc(-c3cc(OC)cc(OC)c3)oc2C)CC1 [Compound 8]
Permeability (le^−6 cm/s) (Cell permeability): 10.4 le^−6 cm/s
Sol. [1]: >72.0 µg/mL

Cc1cccc(Cl)c1-c1nc(CN2CCC(C(=O)NCCCN3C[C@H](C)C[C@H](C)C3)CC2)c(C)o1 [Compound 1, 1-((2-(2-Chloro-6-methylphenyl)-5-methyloxazol-4-yl)methyl)-N-(3-(cis-3,5-dimethylpiperidin-1-yl)propyl)piperidine-4-carboxamide]
Sol. [1]: >74.0 µg/mL
solubility ([1]; phosphate buffered saline (PBS), aqueous buffer, PBS, pH 7.4, room temperature (23° C.)): > 74 µg/mL and > 147 µM
sample still detected in the supernatant [3]: greater than 97%
degradation in presence of dithiothreitol [4]: no measurable degradation

Cc1ccccc1-c1nc(CN2CCC[C@@H](C(=O)NCCCN3C[C@H](C)C[C@H](C)C3)C2)c(C)o1 [Compound 67]
Permeability (le^−6 cm/s) (Cell permeability): 864.8 le^−6 cm/s
Sol. [1]: 57.8 µg/mL
half-life (in vitro): 3.9 min

NC(=O)c1ncn([C@@H]2O[C@H](CO)[C@@H](O)[C@H]2O)n1 [Ribavirin]
CalcuSyn CI value (combination index) (HCVcc-RLuc): 0.770
CalcuSyn synergy volume (level of synergy) (HCVcc-RLuc): ++ (key: +/−: nearly additive (0.9 < CI < 1.1); ++: moderate synergy (0.7 < CI < 0.85); +++: synergy (0.3 < CI < 0.7))
MacSynergy synergy volume (level of synergy) (HCVcc-RLuc): +++ (key: ++: moderate synergy (5 < log volume < 9); +++: strong synergy (log volume > 9))

Cc1ccccc1-c1nc(CN2CCC(C(=O)NCCN3CCCCC3)CC2)c(C)o1 [Compound 11]
Permeability (le^−6 cm/s) (Cell permeability): 987.3 le^−6 cm/s
Sol. [1]: 47 µg/mL

Cc1cc(-c2nc(CN3CCC(C(=O)NCCCN4CCC(C(C)C)CC4)CC3)co2)ccc1F [Compound 71]
Sol. [1]: >72 µg/mL
